{
  "source": "ChEMBL document CHEMBL6074659",
  "about": "“Development of an Intravenously Stable Disulfide-Rich Peptide for the Treatment of Chemotherapy-Induced Neuropathic Pain” (J Med Chem, 2024)",
  "key": {"[1]": {"target": "T1, Neuronal acetylcholine receptor; alpha9/alpha10 (Homo sapiens, UniProt Q9GZZ6+Q9UGM1)", "T1 sequence (Q9UGM1 whole entry)": "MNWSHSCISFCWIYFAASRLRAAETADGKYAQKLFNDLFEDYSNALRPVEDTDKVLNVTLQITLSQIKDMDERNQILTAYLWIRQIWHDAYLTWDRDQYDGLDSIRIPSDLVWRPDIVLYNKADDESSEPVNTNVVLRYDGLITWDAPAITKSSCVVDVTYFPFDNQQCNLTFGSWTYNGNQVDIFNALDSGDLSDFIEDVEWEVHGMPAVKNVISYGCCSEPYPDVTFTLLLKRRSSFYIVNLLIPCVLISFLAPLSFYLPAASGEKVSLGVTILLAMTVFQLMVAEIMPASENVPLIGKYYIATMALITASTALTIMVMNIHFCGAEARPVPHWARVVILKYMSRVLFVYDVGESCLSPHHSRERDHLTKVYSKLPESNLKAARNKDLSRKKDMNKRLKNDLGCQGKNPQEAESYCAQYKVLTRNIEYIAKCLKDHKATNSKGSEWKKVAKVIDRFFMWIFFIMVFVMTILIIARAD", "T1 sequence (Q9GZZ6 whole entry)": "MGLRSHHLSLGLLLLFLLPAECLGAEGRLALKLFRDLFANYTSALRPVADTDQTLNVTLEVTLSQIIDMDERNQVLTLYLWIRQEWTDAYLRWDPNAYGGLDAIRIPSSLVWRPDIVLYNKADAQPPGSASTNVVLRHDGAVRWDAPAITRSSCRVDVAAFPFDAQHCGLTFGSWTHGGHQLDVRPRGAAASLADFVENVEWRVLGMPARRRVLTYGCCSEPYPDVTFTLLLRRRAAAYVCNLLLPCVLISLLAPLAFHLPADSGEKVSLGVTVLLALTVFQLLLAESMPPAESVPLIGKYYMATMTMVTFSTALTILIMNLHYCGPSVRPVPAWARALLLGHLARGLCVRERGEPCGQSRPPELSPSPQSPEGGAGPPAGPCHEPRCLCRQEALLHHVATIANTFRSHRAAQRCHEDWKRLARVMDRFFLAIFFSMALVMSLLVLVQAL", "test": "Inhibition of human alpha9alpha10 nAChR assessed as reduction in acetylcholine-induced current incubated for 5 mins by two electrode voltage-clamp assay", "type": "protein-complex assay"}, "[2]": {"target": "T1, Neuronal acetylcholine receptor; alpha9/alpha10", "test": "Antagonist activity at human alpha9alpha10 nAChR expressed in acetylcholine-induced Xenopus laevis oocytes assessed as inhibition of acetylcholine-induced current at -80 mV holding potential incubated for 5 mins by two electrode voltage-clamp assay", "type": "cell-based, Oocyte"}, "Rattus norvegicus [3]": {"test_system": "Rattus norvegicus", "test": "Analgesic activity in Oxaliplatin-induced cold allodynia SPF male Sprague-Dawley rat assessed as reduction in pain-relieving effect at 500 microg/kg, iv measured at 1 to 24 hrs", "type": "functional, organism-based", "conditions": "dose 500.0 µg/kg, time 1-24 hrs"}, "[4]": {"test": "Stability in human serum assessed as parent compound remaining incubated at 24 hrs by RP-HPLC analysis", "type": "ADME, cell-free", "conditions": "for remaining at 24 h: human serum, read-out: Stability"}, "[5]": {"target": "Neuronal acetylcholine receptor subunit alpha-7 (Homo sapiens, UniProt P36544)", "sequence (P36544 whole entry)": "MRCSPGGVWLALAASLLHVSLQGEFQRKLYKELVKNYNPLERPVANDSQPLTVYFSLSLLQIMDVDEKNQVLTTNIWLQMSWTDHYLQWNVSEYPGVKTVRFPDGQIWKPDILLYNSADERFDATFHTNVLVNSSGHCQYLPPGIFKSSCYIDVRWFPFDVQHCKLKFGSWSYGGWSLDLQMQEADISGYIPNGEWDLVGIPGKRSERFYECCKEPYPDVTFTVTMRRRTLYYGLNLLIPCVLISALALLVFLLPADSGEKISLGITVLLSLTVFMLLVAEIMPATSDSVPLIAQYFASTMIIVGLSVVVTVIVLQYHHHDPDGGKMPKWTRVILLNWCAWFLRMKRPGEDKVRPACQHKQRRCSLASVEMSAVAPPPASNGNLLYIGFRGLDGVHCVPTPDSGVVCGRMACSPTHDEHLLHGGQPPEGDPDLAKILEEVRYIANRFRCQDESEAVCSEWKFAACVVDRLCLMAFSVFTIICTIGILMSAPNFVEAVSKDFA", "test": "Inhibition of human alpha7 nAChR assessed as reduction in acetylcholine-induced current incubated for 5 mins by two electrode voltage-clamp assay"}, "Rattus norvegicus [6]": {"test_system": "Rattus norvegicus", "test": "Analgesic activity in Oxaliplatin-induced cold allodynia SPF male Sprague-Dawley rat assessed as increase in latency at 200 microg/kg, iv measured at 72 hrs by cold plate test", "type": "functional, organism-based", "conditions": "dose 200.0 µg/kg"}, "[7]": {"test": "Stability in human serum assessed as half life incubated upto 48 hrs by RP-HPLC analysis", "type": "ADME, cell-free"}, "[8]": {"test": "Stability in human serum assessed as parent compound remaining incubated at 48 hrs by RP-HPLC analysis", "type": "ADME, cell-free", "conditions": "read-out: Stability"}, "[9]": {"target": "Neuronal acetylcholine receptor; alpha9/alpha10 (Homo sapiens) (UniProt Q9UGM1+Q9GZZ6)", "test": "Antagonist activity at human alpha9alpha10 nAChR expressed in acetylcholine-induced Xenopus laevis oocytes assessed as inhibition of acetylcholine-induced current at 10 nM at -80 mV holding potential incubated for 5 mins by two electrode voltage-clamp assay relative to control", "type": "cell-based", "conditions": "Oocyte, filed as antagonist"}, "[10]": {"target": "Neuronal acetylcholine receptor; alpha3/beta2 (Homo sapiens, UniProt P17787+P32297)", "sequence (P17787 whole entry)": "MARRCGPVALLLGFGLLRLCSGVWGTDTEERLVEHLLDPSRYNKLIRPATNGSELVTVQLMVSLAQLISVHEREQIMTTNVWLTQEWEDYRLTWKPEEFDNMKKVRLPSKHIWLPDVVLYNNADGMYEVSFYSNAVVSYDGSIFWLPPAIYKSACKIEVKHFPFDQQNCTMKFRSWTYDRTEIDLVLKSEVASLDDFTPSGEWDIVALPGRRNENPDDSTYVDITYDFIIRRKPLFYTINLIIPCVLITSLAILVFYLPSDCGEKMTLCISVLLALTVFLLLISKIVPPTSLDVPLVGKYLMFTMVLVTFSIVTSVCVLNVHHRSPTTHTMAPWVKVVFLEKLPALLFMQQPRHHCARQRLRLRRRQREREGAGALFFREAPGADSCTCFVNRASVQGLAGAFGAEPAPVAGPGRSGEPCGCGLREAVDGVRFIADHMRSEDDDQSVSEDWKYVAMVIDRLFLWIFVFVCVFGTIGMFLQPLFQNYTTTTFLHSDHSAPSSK", "sequence (P32297 whole entry)": "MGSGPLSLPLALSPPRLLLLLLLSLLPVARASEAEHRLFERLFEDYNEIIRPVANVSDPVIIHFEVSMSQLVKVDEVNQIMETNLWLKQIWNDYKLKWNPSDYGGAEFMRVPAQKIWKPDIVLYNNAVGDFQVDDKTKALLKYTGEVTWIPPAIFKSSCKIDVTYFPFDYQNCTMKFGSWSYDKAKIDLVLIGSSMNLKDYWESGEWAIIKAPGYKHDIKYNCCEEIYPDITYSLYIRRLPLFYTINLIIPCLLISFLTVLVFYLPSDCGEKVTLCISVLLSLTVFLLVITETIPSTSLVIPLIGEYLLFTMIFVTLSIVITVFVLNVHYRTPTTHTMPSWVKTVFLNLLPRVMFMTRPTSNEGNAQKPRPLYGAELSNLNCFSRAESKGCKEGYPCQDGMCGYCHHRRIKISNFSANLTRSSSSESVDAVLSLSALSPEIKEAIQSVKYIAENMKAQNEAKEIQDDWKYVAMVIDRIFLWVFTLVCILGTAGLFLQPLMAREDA", "test": "Inhibition of human alpha3beta2 nAChR assessed as reduction in acetylcholine-induced current incubated for 5 mins by two electrode voltage-clamp assay", "type": "protein-complex assay"}, "[11]": {"target": "T2, Neuronal acetylcholine receptor; alpha4/beta4 (Homo sapiens) (UniProt P30926+P43681)", "test": "Inhibition of human alpha4beta4 nAChR assessed as reduction in acetylcholine-induced current at 10 nM incubated for 5 mins by two electrode voltage-clamp assay", "type": "protein-complex assay"}, "Rattus norvegicus [12]": {"test_system": "Rattus norvegicus", "test": "Analgesic activity in Oxaliplatin-induced cold allodynia SPF male Sprague-Dawley rat assessed as increase in latency at 500 microg/kg, iv measured at 72 hrs by cold plate test", "type": "functional, organism-based", "conditions": "dose 500.0 µg/kg"}, "[13]": {"target": "Neuronal acetylcholine receptor; alpha3/beta4 (Homo sapiens) (UniProt P30926+P32297)", "test": "Inhibition of human alpha3beta4 nAChR assessed as reduction in acetylcholine-induced current at 10 to 100 nM incubated for 5 mins by two electrode voltage-clamp assay relative to control", "type": "protein-complex assay", "conditions": "dose 10-100 nM"}, "Rattus norvegicus [14]": {"test_system": "Rattus norvegicus", "test": "Analgesic activity in Oxaliplatin-induced cold allodynia SPF male Sprague-Dawley rat assessed as reduction in pain-relieving effect at 500 microg/kg, iv measured at 24 to 48 hrs", "type": "functional, organism-based", "conditions": "dose 500.0 µg/kg, time 24-48 hrs"}, "[15]": {"target": "T2, Neuronal acetylcholine receptor; alpha4/beta4 (Homo sapiens)", "test": "Inhibition of human alpha4beta4 nAChR assessed as reduction in acetylcholine-induced current at 10 to 100 nM incubated for 5 mins by two electrode voltage-clamp assay relative to control", "type": "protein-complex assay", "conditions": "dose 10-100 nM"}, "Rattus norvegicus [16]": {"test_system": "Rattus norvegicus", "test": "Analgesic activity in Oxaliplatin-induced cold allodynia SPF male Sprague-Dawley rat assessed as reduction in pain-relieving effect by measuring acetone response score at 50 microg/kg, iv measured at 48 hrs", "type": "functional, organism-based", "conditions": "dose 50.0 µg/kg"}, "Rattus norvegicus [17]": {"test_system": "Rattus norvegicus", "test": "Analgesic activity in Oxaliplatin-induced cold allodynia SPF male Sprague-Dawley rat assessed as latency time at 500 microg/kg, iv measured at 48 hrs by cold plate test", "type": "functional", "conditions": "dose 500 µg/kg"}, "Homo sapiens [18]": {"species": "Homo sapiens", "test": "Inhibition of human alpha1beta1deltagamma nAChR assessed as reduction in acetylcholine-induced current at 10 to 100 nM incubated for 5 mins by two electrode voltage-clamp assay relative to control", "conditions": "dose 10-100 nM"}, "[19]": {"test": "Stability in human serum assessed as half life incubated upto 192 hrs by RP-HPLC analysis", "type": "ADME, cell-free"}, "Rattus norvegicus [20]": {"test_system": "Rattus norvegicus", "test": "Analgesic activity in Oxaliplatin-induced cold allodynia iv dosed SPF male Sprague-Dawley rat assessed as reduction in pain-relieving effect measured at 72 hrs", "type": "functional, organism-based", "conditions": "dose 500.0 µg/kg"}, "[21]": {"target": "T2, Neuronal acetylcholine receptor; alpha4/beta4 (Homo sapiens)", "test": "Inhibition of human alpha4beta4 nAChR assessed as reduction in acetylcholine-induced current at 100 nM incubated for 5 mins by two electrode voltage-clamp assay relative to control", "type": "protein-complex assay"}, "Rattus norvegicus [22]": {"test_system": "Rattus norvegicus", "test": "Analgesic activity in Oxaliplatin-induced cold allodynia SPF male Sprague-Dawley rat assessed as reduction in pain-relieving effect by measuring acetone response score at 200 microg/kg, iv measured at 48 hrs", "type": "functional, organism-based", "conditions": "dose 200.0 µg/kg"}, "Homo sapiens [23]": {"species": "Homo sapiens", "test": "Inhibition of human alpha1beta1epsilondelta nAChR assessed as reduction in acetylcholine-induced current at 10 to 100 nM incubated for 5 mins by two electrode voltage-clamp assay relative to control", "conditions": "dose 10-100 nM"}},
  "note": "Active and inactive are the calls of the source. The rule behind the calls is not given here. Residues, ends and D or L forms follow the SMILES beside them.",
  "data": [
    {"smiles": "CC[C@H](C)[C@H](NC(=O)[C@H](CC(=O)O)NC(=O)[C@@H]1CCCN1C(=O)[C@H](CC(N)=O)NC(=O)[C@H](CC(N)=O)NC(=O)[C@@H](NC(=O)[C@H](CO)NC(=O)[C@H](CS)NC(=O)[C@H](C)NC(=O)[C@@H]1CCCN1C(=O)[C@H](Cc1cnc[nH]1)NC(=O)[C@H](CN)NC(=O)[C@H](CS)NC(=O)[C@H](CS)NC(=O)CN)C(C)C)C(=O)N[C@@H](CS)C(N)=O", "note": "(HELM PEPTIDE1{G.C.C.[NC[C@H](N[*:1])C(=O)[*:2]].H.P.A.C.S.V.N.N.P.D.I.C.[am]}$$$$V2.0)", "values": [
      {"measurement": "IC50", "setting": "[1]", "value": 4, "unit": "nM"},
      {"measurement": "IC50", "setting": "[2]", "value": 4, "unit": "nM"},
      {"measurement": "Activity", "setting": "Rattus norvegicus [3]", "value": "Active"},
      {"measurement": "remaining at 24 h", "setting": "[4]", "value": 58.6, "unit": "%"},
      {"measurement": "Stability", "setting": "[4]; serum, 24 h", "value": 57.3, "unit": "%"},
      {"measurement": "IC50", "setting": "[5]", "value": 206, "unit": "nM"},
      {"measurement": "Activity", "setting": "Rattus norvegicus [6]", "value": "Active"},
      {"measurement": "half-life", "setting": "[7]", "value": 26.2, "unit": "h"},
      {"measurement": "remaining at 48 h", "setting": "[8]", "value": "< 30", "unit": "%"},
      {"measurement": "inhibition", "setting": "[9]", "value": 80, "unit": "%"},
      {"measurement": "IC50", "setting": "[10]", "value": 20.6, "unit": "nM"}
    ]},
    {"smiles": "CC[C@H](C)[C@@H]1NC(=O)[C@H](CC(=O)O)NC(=O)[C@@H]2CCCN2C(=O)[C@H](CC(N)=O)NC(=O)[C@H](CC(N)=O)NC(=O)[C@H](C(C)C)NC(=O)[C@H](CO)NC(=O)[C@@H]2CSSC[C@H](NC(=O)CN)C(=O)N[C@@H](CSSC(C)(C)[C@@H](C(N)=O)NC1=O)C(=O)N[C@@H](CN)C(=O)N[C@@H](Cc1cnc[nH]1)C(=O)N1CCC[C@H]1C(=O)N[C@@H](C)C(=O)N2", "note": "(HELM PEPTIDE1{G.C.C.[NC[C@H](N[*:1])C(=O)[*:2]].H.P.A.C.S.V.N.N.P.D.I.[Pen].[am]}$PEPTIDE1,PEPTIDE1,2:R3-8:R3|PEPTIDE1,PEPTIDE1,3:R3-16:R3$$$V2.0)", "values": [
      {"measurement": "inhibition", "setting": "[11]", "value": "inactive"},
      {"measurement": "IC50", "setting": "[1]", "value": 4.1, "unit": "nM"},
      {"measurement": "Activity", "setting": "Rattus norvegicus [12]", "value": "Active"},
      {"measurement": "IC50", "setting": "[2]", "value": 4, "unit": "nM"},
      {"measurement": "remaining at 24 h", "setting": "[4]", "value": 90, "unit": "%"},
      {"measurement": "IC50", "setting": "[5]", "value": 133, "unit": "nM"},
      {"measurement": "Activity", "setting": "Rattus norvegicus [6]", "value": "Active"},
      {"measurement": "inhibition", "setting": "[13]", "value": "< 1", "unit": "%"},
      {"measurement": "Activity", "setting": "Rattus norvegicus [14]", "value": "Active"},
      {"measurement": "inhibition", "setting": "[15]", "value": "< 1", "unit": "%"},
      {"measurement": "Activity", "setting": "Rattus norvegicus [16]", "value": "inactive"},
      {"measurement": "Time", "setting": "Rattus norvegicus [17]", "value": 140, "unit": "s"},
      {"measurement": "remaining at 48 h", "setting": "[8]", "value": 85, "unit": "%"},
      {"measurement": "inhibition", "setting": "Homo sapiens [18]", "value": "< 1", "unit": "%"},
      {"measurement": "half-life", "setting": "[19]", "value": 142, "unit": "h"},
      {"measurement": "Activity", "setting": "Rattus norvegicus [20]", "value": "Dose-dependent-effect"},
      {"measurement": "IC50", "setting": "[10]", "value": 21.8, "unit": "nM"},
      {"measurement": "inhibition", "setting": "[21]", "value": 20, "unit": "%"},
      {"measurement": "Activity", "setting": "Rattus norvegicus [22]", "value": "Active"},
      {"measurement": "inhibition", "setting": "Homo sapiens [23]", "value": "< 1", "unit": "%"}
    ]}
  ]
}
